Data: US8314132B2, “5-aryl-4-(5-substituted 2,4-dihydroxyphenyl)-1,2,3-thiadiazoles as inhibitors of Hsp90 chaperone and the intermediates for production thereof” (Biotechnologijos Institutas, priority 2008, dated 2012)

Columns and labels:
[1] = tested on: U2OS (osteosarcoma) cells; test: Growth inhibition (GI50), XTT cell viability assay, U2OS; assay type: cell-based; details: Homo sapiens, 72 h, 3 days, read-out: growth inhibition constants (GI50), U2OS
Method: (§1) The growth inhibition constants of the compounds were determined in two cancer cell lines: U2OS (osteosarcoma) and HeLa (cervical carcinoma). Cells were maintained in DMEM (HeLa) and a 50-50% mixture of DMEM and F-12 media (U2OS) supplemented with 10% fetal bovine serum. Stock solutions (20 mM) of the tested compounds were prepared in 100% dimethyl-sulfoxide (DMSO). Cells, cultured in 24-well plates, were subjected to a range of concentrations of the compounds ([…]) at 0.25% DMSO. After 3 days, cell viability was assayed using XTT (sodium salt of 2,3-bis[2-Methoxy-4-nitro-5-sulfophenyl]-2H-tetrazolium-5-carboxyanilide inner salt) and PMS (phenazine methosulfate) reagents (Scudiero et al. 1988. Cancer Res. 48, 4827-4833). Stock solutions of XTT (1 mg/ml) and PMS (1.53 mg/ml) were prepared in Hank's buffered saline (HBS). Culture medium in each well was replaced by 100 μl of OptiMEM media (Life technologies) containing 35 μg/ml XTT and 0.27 μg/ml PMS. Cells were returned to the incubator for 15-20 min. Quantity of viable cells in each well was evaluated spectrophotometrically measuring the absorbance of XTT formazan at 470 nm. Each experiment was run in duplicate.

[2] = tested on: HeLa (cervical carcinoma) cells; test: Growth inhibition (GI50), XTT cell viability assay, HeLa; assay type: cell-based; details: Homo sapiens, 72 h, 3 days, read-out: GI50 constants, HeLa
Method: as §1

| GI50 [1] [µM] | GI50 [2] [µM] | SMILES |
| --- | --- | --- |
| 11.5 ± 0.1 | 3.6 ± 0.3 | COc1ccc(-c2snnc2-c2cc(Cl)c(O)cc2O)cc1OC [compound 3d, 4-(5-chloro-2,4-dihydroxyphenyl)-5-(3,4-dimethoxyphenyl)-1,2,3-thiadiazole] |
| 0.65 ± 0.08 | 0.7 ± 0.04 | CCOc1ccc(-c2snnc2-c2cc(CC)c(O)cc2O)cc1 [compound 3e, 4-(5-ethyl-2,4-dihydroxyphenyl)-5-(4-ethoxyphenyl)-1,2,3-thiadiazole] |

More lines, now with the values behind:

| SMILES | GI50 [1] [µM] | GI50 [2] [µM] |
| --- | --- | --- |
| Cc1ccc(-c2snnc2-c2cc(Cl)c(O)cc2O)cc1 [compound 3c, 4-(5-chloro-2,4-dihydroxyphenyl)-5-(4-methylphenyl)-1,2,3-thiadiazole] | 7.1 ± 0.1 | 3.3 ± 0.1 |
| CCOc1ccc(-c2snnc2-c2cc(Cl)c(O)cc2O)cc1 [compound 3b, 4-(5-chloro-2,4-dihydroxyphenyl)-5-(4-ethoxyphenyl)-1,2,3-thiadiazole] | 15.1 ± 3.4 | 4.2 ± 0.4 |
| COc1ccc(-c2snnc2-c2cc(Cl)c(O)cc2O)cc1 [compound 3a, 4-(5-chloro-2,4-dihydroxyphenyl)-5-(4-methoxyphenyl)-1,2,3-thiadiazole] | 8.4 ± 1.2 | 2.5 ± 0.1 |
